Measurements: ChEMBL document CHEMBL1139487, “Discovery of corticotropin releasing factor 2 receptor selective sauvagine analogues for treatment of skeletal muscle atrophy” (J Med Chem, 2005)

Experiments:
Mus musculus [1] = test: In vivo percentage inhibition against casting induced tibialis anterior mass loss in mouse at a dosage of 10 ug/kg/day; format: functional
Mus musculus [2] = test: In vivo percentage inhibition against casting induced tibialis anterior mass loss in mouse at a dosage of 30 ug/kg/day; format: functional
Mus musculus [3] = test: In vivo percentage inhibition against casting induced tibialis anterior mass loss in mouse at a dosage of 100 ug/kg/day; format: functional
[4] = target: T1, Corticotropin-releasing factor receptor 1 (Mus musculus) (UniProt P35347); test: In vitro agonistic activity against mouse corticotropin releasing factor 1 receptor; format: functional
T1 sequence (whole entry): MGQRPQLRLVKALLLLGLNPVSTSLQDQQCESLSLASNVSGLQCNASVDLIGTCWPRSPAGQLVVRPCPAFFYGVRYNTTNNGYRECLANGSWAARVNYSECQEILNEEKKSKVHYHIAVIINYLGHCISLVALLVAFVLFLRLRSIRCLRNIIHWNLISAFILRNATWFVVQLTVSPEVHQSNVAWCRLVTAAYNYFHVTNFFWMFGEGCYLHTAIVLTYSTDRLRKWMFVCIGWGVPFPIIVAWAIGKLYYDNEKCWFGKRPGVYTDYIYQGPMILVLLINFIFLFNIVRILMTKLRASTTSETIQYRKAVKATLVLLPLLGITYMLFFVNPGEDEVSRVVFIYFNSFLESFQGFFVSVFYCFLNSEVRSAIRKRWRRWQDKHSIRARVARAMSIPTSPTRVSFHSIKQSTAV

Mus musculus [5] = species on record: Mus musculus; test: Selectivity ratio of EC50s for mouse corticotropin releasing factor receptors 1 and 2
[6] = target: Corticotropin-releasing factor receptor 2 (Mus musculus) (UniProt Q60748); test: In vitro agonistic activity against mouse corticotropin releasing factor 2 receptor; format: functional
Chain of Corticotropin-releasing factor receptor 2 (Mus musculus) (Q60748 whole entry): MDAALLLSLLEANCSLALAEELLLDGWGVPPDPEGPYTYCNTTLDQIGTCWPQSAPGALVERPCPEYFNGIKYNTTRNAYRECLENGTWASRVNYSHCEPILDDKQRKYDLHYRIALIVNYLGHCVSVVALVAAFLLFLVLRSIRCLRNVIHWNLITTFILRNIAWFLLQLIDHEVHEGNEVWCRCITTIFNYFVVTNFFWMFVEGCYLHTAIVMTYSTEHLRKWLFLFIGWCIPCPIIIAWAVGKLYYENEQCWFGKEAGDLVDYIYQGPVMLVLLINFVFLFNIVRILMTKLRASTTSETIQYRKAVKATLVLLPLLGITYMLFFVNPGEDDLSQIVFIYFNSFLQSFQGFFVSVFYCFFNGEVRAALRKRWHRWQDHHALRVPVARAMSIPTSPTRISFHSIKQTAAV

[7] = target: Corticotropin-releasing factor receptor 2 (Mus musculus, UniProt Q60748); test: In vitro effective concentration for mouse corticotropin releasing factor 2 receptor
Chain of Corticotropin-releasing factor receptor 2 (Q60748 whole entry): as above

[8] = target: T2, Corticotropin-releasing factor receptor 1 (Mus musculus, UniProt P35347); test: In vitro effective concentration for mouse corticotropin releasing factor 1 receptor
T2 sequence (P35347 whole entry): T1 sequence (whole entry)

Row | Emax [4] | Selectivity (Mus musculus [5]) | Emax [6] | EC50 [7] | EC50 [8] | Structure (SMILES) | inhibition in vivo at 0.01 mg/kg/day (Mus musculus [1]) | inhibition in vivo at 0.03 mg/kg/day (Mus musculus [2]) | inhibition in vivo at 0.1 mg/kg/day (Mus musculus [3])
1 | 93% | 83 | 93% |  |  | CC[C@H](C)[C@H](NC(=O)[C@@H](NC(=O)[C@H](CC(=O)O)NC(=O)[C@H](CC(C)C)NC(=O)[C@H](CC(C)C)NC(=O)[C@H](CC(C)C)NC(=O)[C@H](CCCN=C(N)N)NC(=O)[C@H](CC(N)=O)NC(=O)[C@H](CC(N)=O)NC(=O)[C@H](C)NC(=O)[C@H](C)NC(=O)[C@H](CCC(N)=O)NC(=O)[C@H](CCC(N)=O)NC(=O)[C@H](CCCCN)NC(=O)[C@H](CCC(=O)O)NC(=O)[C@H](CCCCN)NC(=O)[C@H](CCC(=O)O)NC(=O)[C@H](CCC(N)=O)NC(=O)[C@H](CCCCN)NC(=O)[C@H](CCC(=O)O)NC(=O)[C@@H](NC(=O)[C@H](CCC(=O)O)NC(=O)[C@@H](NC(=O)[C@H](CCSC)NC(=O)[C@H](CCCCN)NC(=O)[C@H](CCCN=C(N)N)NC(=O)[C@H](CC(C)C)NC(=O)[C@H](CC(C)C)NC(=O)[C@@H](NC(=O)[C@H](CCC(N)=O)NC(=O)[C@@H]1CCCN1C(=O)[C@H](CC(C)C)NC(=O)[C@H](CC(=O)O)NC(=O)[C@@H](NC(=O)[C@H](CO)NC(=O)[C@@H](NC(=O)[C@@H]1CCCN1C(=O)[C@@H]1CCCN1C(=O)CNC(=O)[C@@H]1CCC(=O)N1)[C@@H](C)CC)[C@@H](C)CC)[C@@H](C)CC)[C@@H](C)CC)[C@@H](C)CC)[C@@H](C)O)C(=O)O | 32% | 14% | 73%
2 | 80% | 20 | 100% | 5 nM | 100 nM | CC[C@H](C)[C@H](NC(=O)[C@@H](NC(=O)[C@H](CC(=O)O)NC(=O)[C@H](CC(C)C)NC(=O)[C@H](CC(C)C)NC(=O)[C@H](CC(C)C)NC(=O)[C@H](CCCN=C(N)N)NC(=O)[C@H](CC(N)=O)NC(=O)[C@H](CC(N)=O)NC(=O)[C@H](C)NC(=O)[C@H](C)NC(=O)[C@H](CCC(N)=O)NC(=O)[C@H](CCC(N)=O)NC(=O)[C@H](CCCCN)NC(=O)[C@H](CCC(=O)O)NC(=O)[C@H](CCCCN)NC(=O)[C@H](CCC(=O)O)NC(=O)[C@H](CCC(N)=O)NC(=O)[C@H](CCCCN)NC(=O)[C@H](CCC(=O)O)NC(=O)[C@@H](NC(=O)[C@H](CCC(=O)O)NC(=O)[C@@H](NC(=O)[C@H](CCSC)NC(=O)[C@H](CCCCN)NC(=O)[C@H](CCCN=C(N)N)NC(=O)[C@H](CC(C)C)NC(=O)[C@H](CC(C)C)NC(=O)[C@@H](NC(=O)[C@H](Cc1ccc(O)cc1)NC(=O)[C@@H]1CCCN1C(=O)[C@H](CC(C)C)NC(=O)[C@H](CC(=O)O)NC(=O)[C@@H](NC(=O)[C@H](CO)NC(=O)[C@@H](NC(=O)[C@@H]1CCCN1C(=O)[C@@H]1CCCN1C(=O)CNC(=O)[C@@H]1CCC(=O)N1)[C@@H](C)CC)[C@@H](C)CC)C(C)C)[C@@H](C)CC)[C@@H](C)CC)[C@@H](C)O)C(=O)O |  |  | 
